We go through eight compounds from patent publication US8426459B2, “Composition of flavanolignan and amino acid with improved water solubility” (Agra Group, A.S., priority 2008, dated 2013).

Values after ≈ are worked out from the molar mass of the structure shown. Read-outs that look alike come from different tables or passages of the source.

For data set [1] the following is noted: cited from earlier work.
The nature of data set [2]: Solubility of individual components of flavanolignans in the mixture according to Example 1. The following applies: for solubility: read-out: Solubility of individual component in the mixture according to Example 1. The class given is physicochemical. From the text: Solubility of individual components of flavanolignans in the mixture according to Example 1
The conditions of data set [3]: 25° C., cited from earlier work.
The conditions of data set [4]: aqueous solution, 25° C., cited from earlier work; for p I: pI = ½ (pK2 + pK3).
Data set [5] in a line: Solutions of amino acids in water easily prepared at room temperature. The class given is physicochemical. The source says:
When dissolving the mixtures according to the invention in water it is necessary to take into consideration the different solubilities of the basic amino acids themselves.

Where [6] appears, read: Buffer solution pH 4.5 (Bates, sodium acetate and hydrochloric acid, ionic strength 0.05).

In the case of `COc1cc([C@@H]2[C@H]3CO[C@@]4(O)C(=O)[C@@H]2C=C([C@H]2Oc5cc(O)cc(O)c5C(=O)[C@@H]2O)[C@@H]34)ccc1O` [silydianin], in data set [1] (25° C.), the pKa.1 was 6.64, the pKa.2 was 7.78 and the pKa.3 is listed as 9.66. For the same compound, in data set [1] (37° C.), the pKa.1 is on record as 7.10, the pKa.2 was 8.93 and the pKa.3 is 10.06. The solubility in data set [2] (aqueous buffer, Buffer solution pH 4.5 (Bates, sodium acetate and hydrochloric acid, ionic strength 0.05)) worked out at 189 µg/mL (≈ 392 µM). For the same compound, the solubility in data set [2] (purified water, water) stood at 215 µg/mL (≈ 445 µM).

`COc1cc(C2Oc3cc([C@H]4Oc5cc(O)cc(O)c5C(=O)[C@@H]4O)ccc3OC2CO)ccc1O` (stereo partly shown) [silybin]: the pKa.1 is recorded as 7.00 in data set [1] (25° C.) and 6.86 in data set [1] (37° C.). Besides, the pKa.2 entry in data set [1] (25° C.) and in data set [1] (37° C.) was “pKa.2[25° C.] = 8.77; pKa.2[37° C.] = 8.77” each time. Moreover, the values for the pKa.3 in data set [1] (25° C.) and in data set [1] (37° C.) were 9.57 and 9.62, respectively. In addition, the solubility of silybin in data set [3] (Capryl-caprine triglyceride) was 800 ± 500 µg/mL; in data set [3] (Castor oil), 7100 ± 1200 µg/mL; in data set [3] (Ethanol), 225200 ± 5200 µg/mL; in data set [3] (Ethoxy diglycol), 350100 ± 10400 µg/mL; in data set [3] (Ethyl linoleate), 2100 ± 800 µg/mL; in data set [3] (Fish oil), 500 ± 200 µg/mL. Further, the solubility of silybin in data set [3] (Glyceryl monooleate) is 33200 ± 2800 µg/mL; in data set [3] (Polyethylene glycol 200) it was 345900 ± 9500 µg/mL; in data set [3] (Polyethylene glycol 400/ethanol (1:1)), 342100 ± 7100 µg/mL; in data set [3] (Propylene glycol), 162400 ± 3600 µg/mL; in data set [3] (Tocopherol) it was 20000 ± 1900 µg/mL; in data set [3] (Water) it was 400 ± 100 µg/mL.

In the case of `COc1cc([C@H]2Oc3cc([C@H]4Oc5cc(O)cc(O)c5C(=O)[C@@H]4O)ccc3O[C@@H]2CO)ccc1O` [Silybin A, silybin A], the “Solubility of individual component in the mixture according to Example 1” value (shortened to “Solubility of individual component”) in data set [2] (setting [6]) stood at 127.95 µg/mL; in data set [2] (Purified water) it was 178.41 µg/mL.

As to `N=C(N)NCCC[C@H](N)C(=O)O` [L-arginine], in data set [4], the pK1 is 2.01, the pK2 was 9.04, the pK3 was 12.48 and the “p I” value is recorded as 10.76.

With `NCCCC[C@H](N)C(=O)O` [L-lysine], the “concentration of amino acid solution in water that can be easily prepared” value in data set [5] was 1.0 M. Moreover, in data set [4], the pK1 is listed as 2.18, the pK2 is listed as 8.95, the pK3 is listed as 10.53 and the “p I” value is listed as 9.47.

As for `COc1cc([C@@H]2Oc3c(O)cc([C@H]4Oc5cc(O)cc(O)c5C(=O)[C@@H]4O)cc3[C@H]2CO)ccc1O` [silychristin], in data set [1] (25° C.), the pKa.1 was 6.52, the pKa.2 is on record as 7.22 and the pKa.3 is 8.96. For the same compound, in data set [1] (37° C.), the pKa.1 is reported as 6.62, the pKa.2 is given as 7.41 and the pKa.3 was 8.94. Moreover, the “Solubility of individual component” value in data set [2] (setting [6]) stood at 241.57 µg/mL. Besides, the “Solubility of individual component” value in data set [2] (Purified water) stood at 258.24 µg/mL.

As for Isosylibin, the “Solubility of individual component” value in data set [2] (setting [6]) was 78.63 µg/mL; in data set [2] (Purified water) it was 112.90 µg/mL.

For the compound `COc1cc([C@@H]2Oc3cc([C@H]4Oc5cc(O)cc(O)c5C(=O)[C@@H]4O)ccc3O[C@H]2CO)ccc1O` [Silybin B, silybin B], the “Solubility of individual component” value in data set [2] (setting [6]) was 209.62 µg/mL; in data set [2] (Purified water) it was 289.05 µg/mL.

The solubility is the dissolved amount per volume that the medium holds.
